Measured values: PubChem BioAssay (NCI)
Values joined by “and” are separate entries in the source; they are usually repeats but may differ in a detail not shown here. Equal values may be shown once.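 Results reflect a 48-hour exposure of cells in 96-well plates to compound at five concentrations. Here, GI50 denotes the concentration required for 50% inhibition of growth. Definition used: TGI = concentration required for complete inhibition of growth.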

Columns and labels:
Assay in all cases: DTP human tumour cell line panel, 48 h
A549 NSCLC = system: A549 NSCLC
IGROV1 ovarian = system: IGROV1 ovarian
LOX IMVI melanoma = system: LOX IMVI melanoma
MCF7 breast = system: MCF7 breast
NCI-H522 lung = system: NCI-H522 lung
NCI/ADR-RES ovarian = system: NCI/ADR-RES ovarian
OVCAR-4 ovarian = system: OVCAR-4 ovarian
SF-295 CNS = system: SF-295 CNS
SR leukemia = system: SR leukemia
UACC-257 melanoma = system: UACC-257 melanoma

SMILES | GI50 (A549 NSCLC) [µM] | TGI (A549 NSCLC) [µM] | GI50 (IGROV1 ovarian) [µM] | TGI (IGROV1 ovarian) [µM] | GI50 (LOX IMVI melanoma) [µM] | TGI (LOX IMVI melanoma) | GI50 (MCF7 breast) [µM] | TGI (MCF7 breast) [µM] | GI50 (NCI-H522 lung) [µM] | TGI (NCI-H522 lung) [µM] | GI50 (NCI/ADR-RES ovarian) [µM] | TGI (NCI/ADR-RES ovarian) [µM] | GI50 (OVCAR-4 ovarian) [µM] | TGI (OVCAR-4 ovarian) [µM] | GI50 (SF-295 CNS) [µM] | TGI (SF-295 CNS) [µM] | GI50 (SR leukemia) [µM] | TGI (SR leukemia) [µM] | GI50 (UACC-257 melanoma) [µM] | TGI (UACC-257 melanoma) [µM]
CCOC(=O)[C@H](CSSc1ncnc2cc[nH]c12)NC(=O)[C@@H](C)c1ccc2cc(OC)ccc2c1 | 6.36 | > 100 | 5.08 | > 100 | 0.081 | 18.1 µM | 0.122 | > 100 | 0.303 | > 31.5 | 0.687 | > 100 | 2.03 | > 100 | 0.438 | > 100 | 0.385 | > 100 | 3.62 | > 100
Oc1c(Br)cc(Br)cc1CN(Cc1cc(Br)cc(Br)c1O)C1CCCCC1 | – | > 100 | – | > 100 | – | > 100 µM | – | 65 | – | 36.5 | – | > 100 | – | > 100 | – | 72.7 | – | > 100 | – | 45.1
Cc1cc(NC(=O)c2ccc(NS(=O)(=O)CCO)cc2N2CCC3(CC2)CC3)nc(N2CCC(F)(F)CC2)n1 | 14.2 | 30.4 | 16 | 30.6 | 7.05 | 27.3 µM | 8.33 | 25.2 | 12.9 | 27.3 | 0.428 | 16.1 | 14.2 | 27.7 | 12.3 | 27.3 | 1.68 | 25.3 | 16.8 | 32
N=c1ccn2c(n1)OC1C(OP(=O)(O)O)C(CO)OC12 (configuration not stated) | – | > 100 | – | > 100 | – | > 100 µM | – | > 100 | – | > 100 | – | > 100 | – | > 100 | – | > 100 | – | > 51.1 | – | > 100
COc1cc(N2CCC(N3CCN(C)CC3)CC2)ccc1Nc1ncc(Cl)c(Nc2ccccc2P(C)(C)=O)n1 | 1.21 | 14.1 | 0.216 | 0.784 | 2.8 | – | 0.414 | > 100 | 0.759 | 17.3 | 3 | – | 1.3 | > 47.6 | 2.85 | > 100 | – | > 33.6 | 38.8 | > 100
COc1ccc(-c2cc(-c3ccc(Nc4nc(Nc5ccc(Cl)cc5)nc(Nc5ccc(Cl)cc5)n4)cc3)no2)cc1 | 16.4 | 84.7 | 6.3 | 42.8 | 12.2 | 34.9 µM | 7.86 | 47.5 | 7.67 | 25.5 | 16.3 | 53.9 | 14.7 | > 100 | 11.4 | 39.5 | 2.06 | 6.5 | 33.2 | > 100
CC[C@H](C)c1occ2c(O)c(C(=O)O)c(=O)cc-2c1C | – | > 100 | – | 37.2 | – | 32.8 µM | – | > 100 | – | 30.7 | – | 50.4 | – | 68.2 | – | 99.3 | – | 53.5 | – | > 100
O=C1C=C(Nc2ccccc2)c2ncccc2C1=O | 0.476 | 2.3 | 0.904 | 2.58 | 0.208 | 0.514 µM | 0.203 | 0.452 | 0.704 | 2.44 | 0.33 | 1.88 | 0.321 | 1.11 | 1.31 | 2.6 | 0.691 | > 100 | 1.29 | 2.66
CCN(Cc1ccc(F)cc1)c1ccc(CO)c(Cl)c1 | 1.16 | 22.6 | 0.0776 | 0.605 | 7.76 | 20.7 µM | 0.155 | 7.05 | 14.5 | 40.1 | 11.6 | 34.4 | 0.298 | 7.48 | 0.714 | 14 | 15.3 | 51.5 | 0.0835 | 0.285
O=C(OC(C(=O)O)C(OC(=O)c1ccccc1)C(=O)O)c1ccccc1 (configuration not stated) (tested in a mixture with another compound) | – | > 100 | – | > 100 | – | > 100 µM and 44.6 µM | – | > 100 | – | 55.4 | – | > 100 | – | > 100 | – | > 100 | – | > 100 | – | > 100
COc1ccc(OC)c(/C=C/c2nnc(Nc3ccc(Cl)cc3)o2)c1 | 3.67 | 17.8 | 7.69 | > 100 | 7.91 | > 100 µM | 20.7 | > 100 | 7.13 | 83.7 | 7.62 | 98.1 | 2.44 | 6.76 | 6.15 | 64.5 | 48.2 | > 100 | 21.3 | > 100
CCCCCCN(CCCCCC)C(=N)c1ccnc2ccccc12 | 11.9 | 25.9 | 2.83 | 13.4 | 2.17 | 6.33 µM | 2.13 | 5.53 | 2.55 | 11 | 5.84 | 21.1 | 5.98 | 19.6 | 1.39 | 13.4 | 1.74 | 5.34 | 2.37 | 5.62
Nc1ncc(-c2cnn(C3CCNCC3)c2)cc1-c1nc2ccccc2o1 | 1.2 | 4.27 | 0.211 | 0.891 | 1.2 | 2.59 µM | 0.441 | 2.13 | 0.757 | 2.4 | 3.47 | 13.4 | 1.3 | 3.53 | 1.54 | 3.43 | 0.266 | 1.09 | 2.04 | 3.94
